# Assays:
# Staphylococcus aureus = experiment: Antibacterial activity against Staphylococcus aureus ATCC25923 incubated for 16 to 20 hrs by broth microdilution method; format: functional; settings: time 16-20 hrs
# Escherichia coli = experiment: Antibacterial activity against Escherichia coli ATCC25922 incubated for 16 to 20 hrs by broth microdilution method; format: functional; settings: time 16-20 hrs
SMILES,MIC (Staphylococcus aureus),MIC (Escherichia coli)
CC[C@H]1OC(=O)C[C@@H](O)[C@H](C)[C@@H](O[C@@H]2O[C@H](C)[C@@H](O)[C@H](N(C)C)[C@H]2O)[C@@H](CCNCc2cn(-c3cnc4ccccc4c3)nn2)C[C@@H](C)C(=O)/C=C/C(C)=C/[C@@H]1CN(CC)CC,0.5 µg/mL,2 µg/mL
CC[C@H]1OC(=O)C[C@@H](O)[C@H](C)[C@@H](O[C@@H]2O[C@H](C)[C@@H](O)[C@H](N(C)C)[C@H]2O)[C@@H](CCN(Cc2cn(-c3cnc4ccccc4c3)nn2)c2ccccc2)C[C@@H](C)C(=O)/C=C/C(C)=C/[C@@H]1CNCc1ccccc1,4 µg/mL,8 µg/mL
CCCN(C)C[C@H]1/C=C(C)/C=C/C(=O)[C@H](C)C[C@H](CCN(Cc2cn(-c3cnc4ccccc4c3)nn2)c2ccccc2)[C@H](O[C@@H]2O[C@H](C)[C@@H](O)[C@H](N(C)C)[C@H]2O)[C@@H](C)[C@H](O)CC(=O)O[C@@H]1CC,0.5 µg/mL,4 µg/mL
CC[C@H]1OC(=O)C[C@@H](O)[C@H](C)[C@@H](O[C@@H]2O[C@H](C)[C@@H](O)[C@H](N(C)C)[C@H]2O)[C@@H](CCN(C)Cc2cn(-c3cnc4ccccc4c3)nn2)C[C@@H](C)C(=O)/C=C/C(C)=C/[C@@H]1CN(C)C1CCCCC1,1 µg/mL,4 µg/mL
CC[C@H]1OC(=O)C[C@@H](O)[C@H](C)[C@@H](O[C@@H]2O[C@H](C)[C@@H](O)[C@H](N(C)C)[C@H]2O)[C@@H](CCN(Cc2cn(-c3cnc4ccccc4c3)nn2)c2ccccc2)C[C@@H](C)C(=O)/C=C/C(C)=C/[C@@H]1CN(C)C(C)C,0.5 µg/mL,8 µg/mL
CC[C@H]1OC(=O)C[C@@H](O)[C@H](C)[C@@H](O[C@@H]2O[C@H](C)[C@@H](O)[C@H](N(C)C)[C@H]2O)[C@@H](CCN(Cc2cn(-c3cnc4ccccc4c3)nn2)c2ccccc2)C[C@@H](C)C(=O)/C=C/C(C)=C/[C@@H]1CI,2 µg/mL,32 µg/mL
CC[C@H]1OC(=O)C[C@@H](O)[C@H](C)[C@@H](O[C@@H]2O[C@H](C)[C@@H](O)[C@H](N(C)C)[C@H]2O)[C@@H](CCNCc2cn(-c3cnc4ccccc4c3)nn2)C[C@@H](C)C(=O)/C=C/C(C)=C/[C@@H]1CN1CCCCC1,0.5 µg/mL,2 µg/mL
CCCNC[C@H]1/C=C(C)/C=C/C(=O)[C@H](C)C[C@H](CCN(Cc2cn(-c3cnc4ccccc4c3)nn2)c2ccccc2)[C@H](O[C@@H]2O[C@H](C)[C@@H](O)[C@H](N(C)C)[C@H]2O)[C@@H](C)[C@H](O)CC(=O)O[C@@H]1CC,2 µg/mL,8 µg/mL
CC[C@H]1OC(=O)C[C@@H](O)[C@H](C)[C@@H](O[C@@H]2O[C@H](C)[C@@H](O)[C@H](N(C)C)[C@H]2O)[C@@H](CCNCc2cn(-c3cnc4ccccc4c3)nn2)C[C@@H](C)C(=O)/C=C/C(C)=C/[C@@H]1CN(C)C(C)C,0.5 µg/mL,2 µg/mL
CC[C@H]1OC(=O)C[C@@H](O)[C@H](C)[C@@H](O[C@@H]2O[C@H](C)[C@@H](O)[C@H](N(C)C)[C@H]2O)[C@@H](CCNCc2cn(-c3cnc4ccccc4c3)nn2)C[C@@H](C)C(=O)/C=C/C(C)=C/[C@@H]1CI,2 µg/mL,8 µg/mL
CC[C@H]1OC(=O)C[C@@H](O)[C@H](C)[C@@H](O[C@@H]2O[C@H](C)[C@@H](O)[C@H](N(C)C)[C@H]2O)[C@@H](CCN(Cc2cn(-c3cnc4ccccc4c3)nn2)c2ccccc2)C[C@@H](C)C(=O)/C=C/C(C)=C/[C@@H]1CN(C)C1CCCCC1,0.5 µg/mL,4 µg/mL

# Results, then the molecule that gave them:
MIC (Staphylococcus aureus),MIC (Escherichia coli),SMILES
0.5 µg/mL,2 µg/mL,CC[C@H]1OC(=O)C[C@@H](O)[C@H](C)[C@@H](O[C@@H]2O[C@H](C)[C@@H](O)[C@H](N(C)C)[C@H]2O)[C@@H](CCN(Cc2cn(-c3cnc4ccccc4c3)nn2)c2ccccc2)C[C@@H](C)C(=O)/C=C/C(C)=C/[C@@H]1CN(C)CC
2 µg/mL,16 µg/mL,CC[C@H]1OC(=O)C[C@@H](O)[C@H](C)[C@@H](O[C@@H]2O[C@H](C)[C@@H](O)[C@H](N(C)C)[C@H]2O)[C@@H](CCN(C)Cc2cn(-c3cnc4ccccc4c3)nn2)C[C@@H](C)C(=O)/C=C/C(C)=C/[C@@H]1CI
0.5 µg/mL,4 µg/mL,CC[C@H]1OC(=O)C[C@@H](O)[C@H](C)[C@@H](O[C@@H]2O[C@H](C)[C@@H](O)[C@H](N(C)C)[C@H]2O)[C@@H](CCNCc2cn(-c3cnc4ccccc4c3)nn2)C[C@@H](C)C(=O)/C=C/C(C)=C/[C@@H]1CN(C)CC
0.25 µg/mL,4 µg/mL,CC[C@H]1OC(=O)C[C@@H](O)[C@H](C)[C@@H](O[C@@H]2O[C@H](C)[C@@H](O)[C@H](N(C)C)[C@H]2O)[C@@H](CCNCc2cn(-c3cnc4ccccc4c3)nn2)C[C@@H](C)C(=O)/C=C/C(C)=C/[C@@H]1CO
2 µg/mL,8 µg/mL,CCCCN(CCCC)C[C@H]1/C=C(C)/C=C/C(=O)[C@H](C)C[C@H](CCNCc2cn(-c3cnc4ccccc4c3)nn2)[C@H](O[C@@H]2O[C@H](C)[C@@H](O)[C@H](N(C)C)[C@H]2O)[C@@H](C)[C@H](O)CC(=O)O[C@@H]1CC
0.5 µg/mL,2 µg/mL,CC[C@H]1OC(=O)C[C@@H](O)[C@H](C)[C@@H](O[C@@H]2O[C@H](C)[C@@H](O)[C@H](N(C)C)[C@H]2O)[C@@H](CCNCc2cn(-c3cnc4ccccc4c3)nn2)C[C@@H](C)C(=O)/C=C/C(C)=C/[C@@H]1CN(C)C
0.5 µg/mL,4 µg/mL,CCCN(C)C[C@H]1/C=C(C)/C=C/C(=O)[C@H](C)C[C@H](CCNCc2cn(-c3cnc4ccccc4c3)nn2)[C@H](O[C@@H]2O[C@H](C)[C@@H](O)[C@H](N(C)C)[C@H]2O)[C@@H](C)[C@H](O)CC(=O)O[C@@H]1CC
2 µg/mL,8 µg/mL,CCCNC[C@H]1/C=C(C)/C=C/C(=O)[C@H](C)C[C@H](CCN(C)Cc2cn(-c3cnc4ccccc4c3)nn2)[C@H](O[C@@H]2O[C@H](C)[C@@H](O)[C@H](N(C)C)[C@H]2O)[C@@H](C)[C@H](O)CC(=O)O[C@@H]1CC
1 µg/mL,32 µg/mL,CCCCN(CCCC)C[C@H]1/C=C(C)/C=C/C(=O)[C@H](C)C[C@H](CCN(Cc2cn(-c3cnc4ccccc4c3)nn2)c2ccccc2)[C@H](O[C@@H]2O[C@H](C)[C@@H](O)[C@H](N(C)C)[C@H]2O)[C@@H](C)[C@H](O)CC(=O)O[C@@H]1CC
1 µg/mL,4 µg/mL,CC[C@H]1OC(=O)C[C@@H](O)[C@H](C)[C@@H](O[C@@H]2O[C@H](C)[C@@H](O)[C@H](N(C)C)[C@H]2O)[C@@H](CCN(C)Cc2cn(-c3cnc4ccccc4c3)nn2)C[C@@H](C)C(=O)/C=C/C(C)=C/[C@@H]1CO
0.5 µg/mL,1 µg/mL,CC[C@H]1OC(=O)C[C@@H](O)[C@H](C)[C@@H](O[C@@H]2O[C@H](C)[C@@H](O)[C@H](N(C)C)[C@H]2O)[C@@H](CCNCc2cn(-c3cnc4ccccc4c3)nn2)C[C@@H](C)C(=O)/C=C/C(C)=C/[C@@H]1CN1CCCCCC1
1 µg/mL,8 µg/mL,CCCNC[C@H]1/C=C(C)/C=C/C(=O)[C@H](C)C[C@H](CCNCc2cn(-c3cnc4ccccc4c3)nn2)[C@H](O[C@@H]2O[C@H](C)[C@@H](O)[C@H](N(C)C)[C@H]2O)[C@@H](C)[C@H](O)CC(=O)O[C@@H]1CC
1 µg/mL,2 µg/mL,CC[C@H]1OC(=O)C[C@@H](O)[C@H](C)[C@@H](O[C@@H]2O[C@H](C)[C@@H](O)[C@H](N(C)C)[C@H]2O)[C@@H](CCNCc2cn(-c3cnc4ccccc4c3)nn2)C[C@@H](C)C(=O)/C=C/C(C)=C/[C@@H]1CN(C)C1CCCCC1

# Source: ChEMBL document CHEMBL6074711, “Design, Synthesis, and Activity Evaluation of C-23-Modified 5-O-Mycaminosyltylonolide Derivatives” (ACS Med Chem Lett, 2024)
